In publication PMC12332667, “Role of Structural Modifications in Peptidomimetic Compounds as Potential Antimicrobial Agents against Staphylococcus aureus and Streptococcus pyogenes: Balancing Bioavailability, Safety, and Antimicrobial Activity” (ACS Omega, 2025):
Converted amounts (≈) assume the structure as drawn.

How the values were obtained:
S. intemrdius c.i. = experiment: MIC/MBC broth microdilution, S. intermedius; format: cell-based, Staphylococcus intermedius
Protocol: (§1) S. aureus (ATCC 29213),S. pyogenes (ATCC 19615),Streptococcus agalactiae (ATCC 27956),Escherichia coli (ATCC 25922),Proteus vulgaris (ATCC 6896),K. pneumoniae (ATCC 700603) andP. aeruginosa (ATCC 10145) reference strains, as well asStaphylococcus cohnii, Enterococcus faecalis, Staphylococcus schleiferi, Staphylococcus intermedius and Streptococcus mutans clinical isolates, were used to test the antibacterial activity of the peptidomimetics. Bacteria were aerobically cultured for 18 h at 37 °C in plates with sterilized brain heart infusion (BHI) broth (Sigma-Aldrich, USA) media mixed with bacteriological agar (Sigma-Aldrich, USA) using the streak plate method. After 18 h, BHI broth was inoculated to 0.5 on the McFarland scale and diluted to approximately 10^5 CFU/mL. To achieve a final stock concentration of 1024 μg/mL, the peptidomimetics were dissolved in sterile water, and 5–10% of absolute ethanol or dimethyl sulfoxide (DMSO) was added. The antibacterial activities were determined by using the standard broth microdilution method of the National Committee for Clinical Laboratory Standards. The process involved adding serially diluted peptidomimetics to consecutive wells of a 96-well microtiter plate (Brand, Germany) holding media with microorganisms. The inoculated plates treated with peptides were then placed in an incubator at 37 °C for 18 h. The MIC value was determined as the lowest concentration of peptidomimetic at which there was no obvious growth (equal or more than 90% of the untreated sample). […] The lowest concentration yielding growth in no more than 3 colonies, corresponding to at least a 99.9% kill rate, was taken as MBC. Each biological replicate included control wells with the addition of water, DMSO, and ethanol as respective solvent controls. All experiments were conducted with consistent adherence to growth and sterility controls and were performed at least in technical triplicate with three biological repeats.

S. agalactiae ATCC 27956 = experiment: MIC/MBC broth microdilution, S. agalactiae; format: cell-based, Streptococcus agalactiae; conditions: S. agalactiae
Protocol: as §1

S. pyogenes ATCC 19615 = experiment: MIC/MBC broth microdilution, S. pyogenes; format: cell-based, Streptococcus pyogenes; conditions: S. pyogenes
Protocol: as §1

[1] = test system: immortalized human HaCaT keratinocytes; experiment: XTT cell proliferation assay, keratinocytes; format: cell-based
Protocol: (§2) In our study, we used two distinct cell types: immortalized human HaCaT keratinocytes (DKFZ, Heidelberg, Germany) and a human dermal fibroblast cell line (46BR.1N). […] Cultures were maintained in a humidified atmosphere with 5% CO2 at 37 °C in 25 cm^2 culture flasks with the medium replenished every 2 days. The condition of the cells was monitored using optical microscopy. […] After 24 h of incubation, the medium was replaced with serum-free HG-DMEM containing appropriate concentrations of peptidomimetics. All solutions used in the experiments were prepared with double-distilled water or with the addition of ethanol under sterile conditions to ensure compatibility with the conditions of the bacteriological assay. For 72 h of incubation, half of the medium was replaced with fresh medium after 48 h, and cells were stimulated with peptides for a second time. The XTT cell proliferation assay was then performed according to the manufacturer’s instructions (Roche, Switzerland). Cells were treated with the peptides for either 48 or 72 h, followed by the addition of XTT reagent, and the plates were then incubated at 37 °C in a 5% CO2 environment for 4 h. Plate readings were taken using a standard plate reader at a wavelength of 490 nm (OD = 490 nm). […] Statistical significance was determined with a Mann–Whitney U test with statistical significance p ≤ 0.05. Analysis was performed with Statistica software, and graphs were prepared in GraphPad Prism.

E. faecalis c.i. = experiment: MIC/MBC broth microdilution, E. faecalis; format: cell-based, Enterococcus faecalis
Protocol: as §1

[2] = test system: K. pneumoniae ATCC 700603; experiment: MIC/MBC broth microdilution, K. pneumoniae; format: cell-based
Protocol: as §1

S. mutans c.i. = experiment: MIC/MBC broth microdilution, S. mutans; format: cell-based, Streptococcus mutans
Protocol: as §1

P. vulgaris ATCC 6896 = experiment: MIC/MBC broth microdilution, P. vulgaris; format: cell-based, Proteus vulgaris
Protocol: as §1

fibroblasts (46BR.1N) = experiment: LDH cytotoxicity test, fibroblasts; format: cell-based; conditions: 48 h
Protocol: (§3) In our study, we used two distinct cell types: immortalized human HaCaT keratinocytes (DKFZ, Heidelberg, Germany) and a human dermal fibroblast cell line (46BR.1N). […] Cultures were maintained in a humidified atmosphere with 5% CO2 at 37 °C in 25 cm^2 culture flasks with the medium replenished every 2 days. The condition of the cells was monitored using optical microscopy.
(§4) Cell death in immortalized human keratinocytes (HaCaT) and fibroblasts (46BR.1N) was measured by quantifying the lactate dehydrogenase (LDH) activity using a commercial kit (Roche, Switzerland). Cells were seeded in 96-well plates at a density of 5000 cells per well in DMEM high glucose medium supplemented with 10% FBS. After 24 h of incubation, the medium was replaced with serum-free medium containing various concentrations of peptidomimetics (50, 100, and 150 μg/mL). After 48 h, supernatants were collected for LDH analysis. Plate readings were taken spectrophotometrically using a 450 nm wavelength. Cell death measurements were normalized to an untreated control (0%), with 1% Triton X-100 detergent used as a positive control to induce maximum LDH release, indicating maximal cytotoxicity. Statistical significance was determined with a Mann–Whitney U test with a statistical significance p ≤ 0.05. Analysis was performed with Statistica software (Krakow, Poland) and graphs were prepared in GraphPad Prism (Boston, USA).

[3] = test system: human dermal fibroblast cell line (46BR.1N); experiment: XTT cell proliferation assay, fibroblasts; format: cell-based; conditions: XTT
Protocol: as §2

S. cohnii c.i. = experiment: MIC/MBC broth microdilution, S. cohnii; format: cell-based, Staphylococcus cohnii
Protocol: as §1

S. schleiferi c.i. = experiment: MIC/MBC broth microdilution, S. schleiferi; format: cell-based, Staphylococcus schleiferi
Protocol: as §1

S. aureus ATCC 43300 = experiment: MIC/MBC broth microdilution, S. aureus; format: cell-based, Staphylococcus aureus; conditions: S. aureus
E. coli ATCC 25922 = experiment: MIC/MBC broth microdilution, E. coli; format: cell-based, Escherichia coli
Protocol: as §1

P. aeruginosa ATCC 10145 = experiment: MIC/MBC broth microdilution, P. aeruginosa; format: cell-based
Protocol: as §1

[4] = test system: immortalized human keratinocytes (HaCaT); experiment: LDH cytotoxicity test, keratinocytes; format: cell-based; conditions: 48 h
Protocol: as §3, §4

Cc1ccccc1COC(=O)N[C@@H](CCCNC(=N)N)C(=O)N[C@@H](CC(C)C)C(=O)N[C@H](CNC(=O)/C=C/c1ccccc1)C(C)C [Compound A-210]
MBC (S. intemrdius c.i.; H2O): 16 µg/mL (≈ 24.6 µM) | MIC (S. intemrdius c.i.; H2O): 16 µg/mL (≈ 24.6 µM) | MBC (S. intemrdius c.i.; water additive DMSO): 16 µg/mL (≈ 24.6 µM) | MIC (S. intemrdius c.i.; water additive DMSO): 16 µg/mL (≈ 24.6 µM) | MBC (S. intemrdius c.i.; water additive EtOH): 16 µg/mL (≈ 24.6 µM) | MIC (S. intemrdius c.i.; water additive EtOH): 16 µg/mL (≈ 24.6 µM) | MIC (S. agalactiae ATCC 27956; H2O): 16 µg/mL (≈ 24.6 µM) | MBC (S. agalactiae ATCC 27956; water additive DMSO): 32 µg/mL (≈ 49.2 µM) | MIC (S. agalactiae ATCC 27956; water additive DMSO): 16 µg/mL (≈ 24.6 µM) | MIC (S. agalactiae ATCC 27956; water additive EtOH): 32 µg/mL (≈ 49.2 µM) | MIC (S. pyogenes ATCC 19615; H2O): 32 µg/mL (≈ 49.2 µM) | MIC (S. pyogenes ATCC 19615; water additive DMSO): 32 µg/mL (≈ 49.2 µM) | MIC (S. pyogenes ATCC 19615; water additive EtOH): 32 µg/mL (≈ 49.2 µM) | proliferation ([1]; 72 h): less than 50% | proliferation relative to control at 150 μg/mL (highest tested concentration) ([1]; XTT, 150 μg/mL): 50% | effect on proliferation, in words ([1]; XTT, 48 and 72 h, 0.01–150 μg/mL): negative impact | MBC (E. faecalis c.i.; H2O): 256 µg/mL (≈ 394 µM) | MBC (E. faecalis c.i.; water additive DMSO): 256 µg/mL (≈ 394 µM) | MBC (E. faecalis c.i.; water additive EtOH): 256 µg/mL (≈ 394 µM) | MIC (E. faecalis c.i.; water additive EtOH): 32 µg/mL (≈ 49.2 µM) | MIC ([2]; H2O): > 512 µg/mL | MIC ([2]; water additive DMSO): > 512 µg/mL | MIC ([2]; water additive EtOH): > 512 µg/mL | MIC (S. mutans c.i.; H2O): > 512 µg/mL | MIC (S. mutans c.i.; water additive DMSO): > 512 µg/mL | MIC (S. mutans c.i.; water additive EtOH): > 512 µg/mL | MBC (P. vulgaris ATCC 6896; H2O): 256 µg/mL (≈ 394 µM) | MBC (P. vulgaris ATCC 6896; water additive DMSO): 256 µg/mL (≈ 394 µM) | cytotoxicity (LDH), in words (fibroblasts (46BR.1N); 50-150 μg/mL): no negative effect at 50 μg/mL concentration | concentration at which cytotoxic effect starts (fibroblasts (46BR.1N); LDH): 100 µg/mL | proliferation relative to control at 150 μg/mL (highest tested concentration) ([3]; 150 μg/mL): 50% | effect on proliferation, in words ([3]; 48 and 72 h, 0.01–150 μg/mL): negative impact | MIC (S. cohnii c.i.; water additive DMSO): 32 µg/mL (≈ 49.2 µM) | MIC (S. cohnii c.i.; water additive EtOH): 32 µg/mL (≈ 49.2 µM) | MBC (S. schleiferi c.i.; H2O): 8 µg/mL (≈ 12.3 µM) | MIC (S. schleiferi c.i.; H2O): 4 µg/mL (≈ 6.16 µM) | MBC (S. schleiferi c.i.; water additive DMSO): 16 µg/mL (≈ 24.6 µM) | MIC (S. schleiferi c.i.; water additive DMSO): 8 µg/mL (≈ 12.3 µM) | MBC (S. schleiferi c.i.; water additive EtOH): 8 µg/mL (≈ 12.3 µM) | MIC (S. schleiferi c.i.; water additive EtOH): 4 µg/mL (≈ 6.16 µM) | MIC (S. aureus ATCC 43300; H2O): 32 µg/mL (≈ 49.2 µM) | MIC (S. aureus ATCC 43300; water additive DMSO): 32 µg/mL (≈ 49.2 µM) | MBC (S. aureus ATCC 43300; water additive EtOH): 32 µg/mL (≈ 49.2 µM) | MIC (S. aureus ATCC 43300; water additive EtOH): 16 µg/mL (≈ 24.6 µM) | MIC (E. coli ATCC 25922; H2O): > 512 µg/mL | MIC (E. coli ATCC 25922; water additive DMSO): > 512 µg/mL | MIC (E. coli ATCC 25922; water additive EtOH): > 512 µg/mL | MIC (P. aeruginosa ATCC 10145; H2O): 512 µg/mL (≈ 788 µM) | MIC (P. aeruginosa ATCC 10145; water additive DMSO): 512 µg/mL (≈ 788 µM) | MBC (P. aeruginosa ATCC 10145; water additive EtOH): 512 µg/mL (≈ 788 µM) | MIC (P. aeruginosa ATCC 10145; water additive EtOH): 256 µg/mL (≈ 394 µM) | cytotoxicity (LDH), in words ([4]; 50-150 μg/mL): no negative effect at 50 μg/mL concentration | concentration at which cytotoxic effect starts ([4]; LDH): 100 µg/mL
